# Test results from patent US11944622B2 (Annapurna Bio, Inc., priority 2018, dated 2024).
# Molecular target: T1, APJ Receptor (Homo sapiens, UniProt P35414)
# T1 sequence (P35414 1-380): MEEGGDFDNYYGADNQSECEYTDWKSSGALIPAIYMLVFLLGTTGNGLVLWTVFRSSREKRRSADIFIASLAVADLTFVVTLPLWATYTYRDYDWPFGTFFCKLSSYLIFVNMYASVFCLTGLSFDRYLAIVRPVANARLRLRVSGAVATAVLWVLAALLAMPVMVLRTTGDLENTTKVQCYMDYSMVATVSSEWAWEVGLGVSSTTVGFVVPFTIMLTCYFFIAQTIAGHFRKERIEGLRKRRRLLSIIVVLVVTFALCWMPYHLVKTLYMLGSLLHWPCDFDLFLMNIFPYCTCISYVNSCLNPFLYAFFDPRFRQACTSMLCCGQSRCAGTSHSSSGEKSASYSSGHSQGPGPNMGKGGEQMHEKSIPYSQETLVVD
# Assay: APJ cAMP assay (DiscoverX enzyme fragment complementation; inhibition of forskolin-stimulated cAMP)
# Format: cell-based
# Conditions: CHO-K1 cell line stably expressing the APJ Receptor; EC80 forskolin; 30 minutes at 37° C.; read-out: Potency Range (APJ cAMP EC50)
# Description: Activation of APJ receptor is known to inhibit forskolin-stimulated cyclic AMP (cAMP) production in cells in a pertussis toxin-sensitive manner which indicates primary coupling to the GαI subunit of the G protein heterotrimeric complex. In addition to signaling through G protein and inhibition of cAMP, APJ receptor activation also results in β-arrestin recruitment, receptor internalization and activation of extracellular-regulated kinases (ERKs).
# In order to optimize functional activity directed toward Gi coupling we utilized a CHO-K 1 cell line developed by DiscoverX stably expressing the APJ Receptor. Cells expressing APJR receptor were plated in a 384-well microtiter plates and incubated overnight at 37° C. with 5% CO2 to allow the cells to attach and grow. Media was then aspirated from the cells and replaced with 15 uL 2:1 Hanks Balanced Salt Solution (HBSS)/10 mM Hepes:cAMP XS+Ab reagent. Five microliters (5 uL) of previously generated compound sample stocks at 4× final concentration in assay buffer containing 4× EC80 forskolin were then added to the cells and allowed to incubate at 37° C. for 30 minutes.
# After incubation the assay signal was generated using a technology termed enzyme fragment complementation (EFC). In EFC the enzyme B-galactosidase is split into two complementary portions (EA and ED). The fragment ED is fused to cAMP and in the assay format competes with endogenous cAMP for binding to a cAMP specific antibody. Activated B-Gal is formed when exogenous EA fragment binds to free ED-cAMP (not bound to cAMP specific antibody). Activated enzyme levels are detected through conversion of B-gal chemiluminescent substrate which generates a detectable luminescence signal and read on standard microtiter plate.
# The methodology for detection of cAMP using EFC requires incubation with 20 uL of cAMP XS+ED/CL lysis cocktail for one hour followed by incubation with 20 uL cAMP XS+EA reagent for three hours at room temperature. Microplates were read following signal generation with a PerkinElmer Envision instrument utilizing chemiluminescent signal detection.
# Compound activity was analyzed using CBIS data analysis suite (ChemInnovation, CA). Percentage activity was calculated using the following formula: % Activity=100%×(1−(mean RLU of test sample−mean RLU of Max control)/(mean RLU of vehicle control−mean RLU of Max control))
row,Structure (SMILES),EC50 [µM]
1,"CCOc1cccc(-c2nc3ncc(NS(C)(=O)=O)nc3n2-c2c(OC)ccnc2OC)n1 (atropisomer, axis not shown) [Example 84, N-(1-(2,4-Dimethoxypyridin-3-yl)-2-(6-ethoxypyridin-2-yl)-1H-imidazo[4,5-b]pyrazin-6-yl)methanesulfonamide]",0.001 to 0.1
2,"CCOc1cccc(-c2nc3ncc(NS(C)(=O)=O)nc3n2-c2c(OC)ccnc2OC)n1 (atropisomer, axis not shown) [Example 85, N-(1-(2,4-Dimethoxypyridin-3-yl)-2-(6-ethoxypyridin-2-yl)-1H-imidazo[4,5-b]pyrazin-6-yl)methanesulfonamide]",0.1 to 10
3,"CCOc1cccc(-c2nc3ncc(Br)nc3n2-c2c(OC)cccc2OC)n1 [Example 1, 6-bromo-1-(2,6-dimethoxyphenyl)-2-(6-ethoxypyridin-2-yl)-1H-imidazo[4,5-b]pyrazine]",0.1 to 10
4,"CCOc1cccc(-c2nc3ncc(NS(C)(=O)=O)nc3n2-c2c(OC)cccc2OC)n1 [Example 2, N-(1-(2,6-dimethoxyphenyl)-2-(6-ethoxypyridin-2-yl)-1H-imidazo[4,5-b]pyrazin-6-yl)methanesulfonamide]",0.001 to 0.1
5,"CCOc1cccc(-c2nc3ncc(NS(=O)(=O)Cc4ccccc4)nc3n2-c2c(OC)cccc2OC)n1 [Example 3, N-(1-(2,6-dimethoxyphenyl)-2-(6-ethoxypyridin-2-yl)-1H-imidazo[4,5-b]pyrazin-6-yl)-1-phenylmethanesulfonamide]",0.001 to 0.1
6,"CCOc1cccc(-c2nc3ncc(NS(=O)(=O)CC4CC4)nc3n2-c2c(OC)cccc2OC)n1 [Example 4, 1-cyclopropyl-N-(1-(2,6-dimethoxyphenyl)-2-(6-ethoxypyridin-2-yl)-1H-imidazo[4,5-b]pyrazin-6-yl)methanesulfonamide]",0.001 to 0.1
7,"CCOc1cccc(-c2nc3ncc(NS(=O)(=O)c4ccccc4)nc3n2-c2c(OC)cccc2OC)n1 [Example 5, N-(1-(2,6-dimethoxyphenyl)-2-(6-ethoxypyridin-2-yl)-1H-imidazo[4,5-b]pyrazin-6-yl)benzenesulfonamide]",< 0.001
8,"CCOc1cccc(-c2nc3ncc(C#Cc4ccccc4)nc3n2-c2c(OC)cccc2OC)n1 [Example 6, 1-(2,6-dimethoxyphenyl)-2-(6-ethoxypyridin-2-yl)-6-(phenylethynyl)-1H-imidazo[4,5-b]pyrazine]",0.1 to 10
9,"CCOc1cccc(-c2nc3ncc(CCc4ccccc4)nc3n2-c2c(OC)cccc2OC)n1 [Example 7, 1-(2,6-dimethoxyphenyl)-2-(6-ethoxypyridin-2-yl)-6-phenethyl-1H-imidazo[4,5-b]pyrazine]",0.001 to 0.1
10,"CCOc1cccc(-c2nc3ncc(C(=O)NCc4ccccc4)nc3n2-c2c(OC)cccc2OC)n1 [Example 8, N-Benzyl-1-(2,6-dimethoxyphenyl)-2-(6-ethoxypyridin-2-yl)-1H-imidazo[4,5-b]pyrazine-6-carboxamide]",0.1 to 10
11,"CCOc1cccc(-c2nc3ncc(NC)nc3n2-c2c(OC)cccc2OC)n1 [Example 9, 1-(2,6-dimethoxyphenyl)-2-(6-ethoxypyridin-2-yl)-N-methyl-1H-imidazo[4,5-b]pyrazin-6-amine]",0.001 to 0.1
12,"CCOc1cccc(-c2nc3ncc(N)nc3n2-c2c(OC)cccc2OC)n1 [Example 10, 1-(2,6-dimethoxyphenyl)-2-(6-ethoxypyridin-2-yl)-1H-imidazo[4,5-b]pyrazin-6-amine]",0.001 to 0.1
13,"CCOc1cccc(-c2nc3ncc(N(Cc4ccccc4)Cc4ccccc4)nc3n2-c2c(OC)cccc2OC)n1 [Example 11, N,N-dibenzyl-1-(2,6-dimethoxyphenyl)-2-(6-ethoxypyridin-2-yl)-1H-imidazo[4,5-b]pyrazin-6-amine]",0.001 to 0.1
14,"CCOc1cccc(-c2nc3ncc(N(C)C)nc3n2-c2c(OC)cccc2OC)n1 [Example 12, 1-(2,6-dimethoxyphenyl)-2-(6-ethoxypyridin-2-yl)-N,N-dimethyl-1H-imidazo[4,5-b]pyrazin-6-amine]",0.1 to 10
15,"CCOc1cccc(-c2nc3ncc(NCc4ccccc4)nc3n2-c2c(OC)cccc2OC)n1 [Example 13, N-benzyl-1-(2,6-dimethoxyphenyl)-2-(6-ethoxypyridin-2-yl)-1H-imidazo[4,5-b]pyrazin-6-amine]",0.001 to 0.1
16,"CCOc1cccc(-c2nc3ncc(NC(=O)Cc4ccccc4)nc3n2-c2c(OC)cccc2OC)n1 [Example 14, N-(1-(2,6-dimethoxyphenyl)-2-(6-ethoxypyridin-2-yl)-1H-imidazo[4,5-b]pyrazin-6-yl)-2-phenylacetamide]",0.001 to 0.1
17,"CCOc1cccc(-c2nc3nc(Cl)cnc3n2-c2c(OC)cccc2OC)n1 [Example 15, 5-chloro-1-(2,6-dimethoxyphenyl)-2-(6-ethoxypyridin-2-yl)-1H-imidazo[4,5-b]pyrazine]",0.1 to 10
18,"CCOc1cccc(-c2nc3nc(N)cnc3n2-c2c(OC)cccc2OC)n1 [Example 16, 1-(2,6-dimethoxyphenyl)-2-(6-ethoxypyridin-2-yl)-1H-imidazo[4,5-b]pyrazin-5-amine]",0.001 to 0.1
19,"CCOc1cccc(-c2nc3nc(NC(=O)Cc4ccccc4)cnc3n2-c2c(OC)cccc2OC)n1 [Example 17, N-(1-(2,6-dimethoxyphenyl)-2-(6-ethoxypyridin-2-yl)-1H-imidazo[4,5-b]pyrazin-5-yl)-2-phenylacetamide]",0.001 to 0.1
20,"CCOc1cccc(-c2nc3nccnc3n2-c2c(OC)cccc2OC)n1 [Example 18, 1-(2,6-dimethoxyphenyl)-2-(6-ethoxypyridin-2-yl)-1H-imidazo[4,5-b]pyrazine]",0.1 to 10
21,"CCOc1cccc(-c2cc3ncc(NS(C)(=O)=O)nc3n2-c2c(OC)cccc2OC)n1 [Example 19, N-(5-(2,6-dimethoxyphenyl)-6-(6-ethoxypyridin-2-yl)-5H-pyrrolo[2,3-b]pyrazin-3-yl)methanesulfonamide]",0.1 to 10
22,"CCOc1cccc(-c2nc3ncc(NS(C)(=O)=O)cc3n2-c2c(OC)cccc2OC)n1 [Example 20, N-(1-(2,6-dimethoxyphenyl)-2-(6-ethoxypyridin-2-yl)-1H-imidazo[4,5-b]pyridin-6-yl)methanesulfonamide]",0.001 to 0.1
23,"CCOc1cccc(-c2nc3nnc(NS(C)(=O)=O)cc3n2-c2c(OC)cccc2OC)n1 [Example 21, N-(5-(2,6-dimethoxyphenyl)-6-(6-ethoxypyridin-2-yl)-5H-imidazo[4,5-c]pyridazin-3-yl)methanesulfonamide]",0.001 to 0.1
24,"CCOc1cccc(-c2nc3ncc(NS(=O)(=O)C4CC4)nc3n2-c2c(OC)cccc2OC)n1 [Example 22, N-(1-(2,6-dimethoxyphenyl)-2-(6-ethoxypyridin-2-yl)-1H-imidazo[4,5-b]pyrazin-6-yl)cyclopropanesulfonamide]",0.001 to 0.1
25,"CCOc1cccc(-c2nc3ncc(NS(=O)(=O)c4ccccn4)nc3n2-c2c(OC)cccc2OC)n1 [Example 23, N-(1-(2,6-dimethoxyphenyl)-2-(6-ethoxypyridin-2-yl)-1H-imidazo[4,5-b]pyrazin-6-yl)pyridine-2-sulfonamide]",< 0.001
26,"CCOc1cccc(-c2nc3ncc(NS(=O)(=O)c4cccnc4)nc3n2-c2c(OC)cccc2OC)n1 [Example 24, N-(1-(2,6-dimethoxyphenyl)-2-(6-ethoxypyridin-2-yl)-1H-imidazo[4,5-b]pyrazin-6-yl)pyridine-3-sulfonamide]",0.001 to 0.1
27,"CCOc1cccc(-c2nc3ncc(NS(=O)(=O)c4ccncc4)nc3n2-c2c(OC)cccc2OC)n1 [Example 25, N-(1-(2,6-dimethoxyphenyl)-2-(6-ethoxypyridin-2-yl)-1H-imidazo[4,5-b]pyrazin-6-yl)pyridine-4-sulfonamide]",0.001 to 0.1
28,"CCOc1cccc(-c2nc3ncc(NS(=O)(=O)Cc4cccnc4)nc3n2-c2c(OC)cccc2OC)n1 [Example 26, N-(1-(2,6-dimethoxyphenyl)-2-(6-ethoxypyridin-2-yl)-1H-imidazo[4,5-b]pyrazin-6-yl)-1-(pyridin-3-yl)methanesulfonamide]",0.001 to 0.1
29,"CCOc1cccc(-c2nc3ncc(NS(=O)(=O)Cc4ccccn4)nc3n2-c2c(OC)cccc2OC)n1 [Example 27, N-(1-(2,6-dimethoxyphenyl)-2-(6-ethoxypyridin-2-yl)-1H-imidazo[4,5-b]pyrazin-6-yl)-1-(pyridin-2-yl)methanesulfonamide]",0.001 to 0.1
